Data published in US20250179028A1, “ACRYLAMIDE COMPOUNDS” (NRG THERAPEUTICS LTD, priority 2022, published 2025).
pIC50: −log10 of the molar value. In brackets after ≈: the same amount, converted by molar mass. Like-named read-outs stand apart in the source and are kept apart here.

Tests used:
mPTP = mPTP activity (Ca2+ retention) assay in isolated rat liver mitochondria; type: biochemical; conditions: isolated rat liver mitochondria; average value from multiple experiments (n ≥ 2)
From the text: Pharmacological inhibition or modulation of the mPTP can be measured in well characterised ‘Ca^2+ retention’ assays performed in isolated mitochondria. In vitro isolated mitochondria rapidly sequester exogenous Ca^2+ until the intramitochondrial Ca^2+ concentration reaches the threshold for mPTP activation. Once the pore is activated, mitochondrial integrity is compromised and the stored Ca^2+ is released. The distribution of Ca^2+ between extra- and intra-mitochondrial compartments can be measured in real time with the use of membrane-impermeant Ca^2+ sensitive fluorescent dyes. Depending on the configuration of the assay, inhibition or modulation of the mPTP either delays the opening of the pore or increases the concentration of Ca^2+ required to induce mPTP opening.
MPTP activity was measured in mitochondria freshly isolated from female Sprague Dawley (250 to 300 gram) rat livers using the following method. Cervical dislocation was performed on the rat. The liver was then perfused in-situ with ˜40 ml cold Dulbecco's Phosphate Buffered Saline (DPBS) prior to dissection and transferred into 30 ml Isolation Buffer (250 mM Sucrose, 10 mM KCl, 1 mM EGTA, 1 mM EDTA, 25 mM HEPES, adjusted to pH 7.5 with 1 M NaOH). Each lobe of the liver was then removed from the buffer, minced using tweezers and a scalpel into ˜5 mm pieces then transferred into a 50 ml Potterton dounce homogenization tube on ice containing 30 ml ice-cold centrifugation buffer (300 mM Trehalose, 25 mM HEPES, 1 mM EGTA, 1 mM EDTA, 10 mM KCl, adjusted to pH 7.5 with 1 M NaOH and supplemented with 0.1% bovine serum albumin (BSA) and complete protease inhibitor cocktail (one tablet of inhibitor per 50 mls of buffer). Homogenisation was carried out using a teflon pestle at 1800 rpm. The slurry was centrifuged at 800 g for 10 min at 4° C., then the supernatant centrifuged at 10,000 g for 10 min. The pellet was washed once with FLIPR assay buffer (75 mM Mannitol, 25 mM Sucrose, 5 mM Potassium Phosphate Monobasic, 20 mM Tris base, 100 mM KCl, 0.1% BSA adjusted to pH 7.4 with 5M HCl) centrifuged again, then resuspended in FLIPR assay buffer to a concentration of 8.8 mg/ml protein.
Tested compounds (10 mM stock in DMSO) were serially diluted in DMSO in half log steps to generate 10 test concentrations (final concentrations in assay 30 μM to 1 nM). An intermediate dilution of 5 μl DMSO samples into 247 μl FLIPR assay buffer was carried out prior to transfer of 5 μl into duplicate wells of a 384 well polypropylene assay plate. Control wells were 0.5% (v/v) DMSO and 5 μM cyclosporin A.
A stock mitochondria/Fluo5N assay solution was prepared in 5.6 ml FLIPR assay buffer (at RT) supplemented with succinate disodium salt (10 mM), rotenone (1 μM), Fluo5N pentapotassium salt (2 μM) and 1 ml mitochondria suspension, then transferred (15 μl) into the assay plate containing test compounds and incubated for 10 min at RT. Assay plates were then transferred to a FLIPR Tetra plate reader (Molecular Devices). Dye fluorescence was then measured every 3 sec for a total of 10 min. After 12 sec, a 2.5 μl bolus of CaCl2 (75 μM) was added from a source plate containing 675 μM CaCl2 in FLIPR assay buffer. IC50 values for tested compounds were calculated using the fluorescence value collected at the 10 min timepoint with % inhibition calculated using the DMSO control and cyclosporin A values as […] respectively.

CYP2D6 = CYP2D6 (Homo sapiens (Human), UniProt P10635); assay: Cytochrome P450 CYP2D6 inhibition in human liver microsomes; type: in vitro ADME; conditions: human liver microsomes, average value from two experiments; for inhibition at 20 min, 1 µM: probe dextromethorphan 2 µM (dextrorphan formation), 1 uM test compound, negative values = no effective inhibition
Method: Studies to assess tested compound mediated inhibition of cytochrome P450 enzyme isoform CYP2D6 were performed using human liver microsomes (BD Gentest) using either a single concentration (1 μM) of test compound or concentration response (0.1, 0.3, 1, 3, 10 and 30 μM) to derive an IC50. Tested compound solutions were prepared from 10 mM stocks in DMSO and diluted to 200 μM in DMSO. Reactions were prepared in a 96 deep well plate by combining 1 μl test compound with 179 μl reaction mixture (100 mM phosphate buffered saline (PBS), 0.2 mg/mL microsomes and 2 μM Dextromethorphan prepared from stocks as detailed below).
The positive control inhibitor, quinidine, was used at a final concentration of 0.5 μM when used at a single concentration. The final concentrations of quinidine used to derive an IC50 were 0, 0.1, 0.3, 1, 3, 10 and 30 μM. Plates were warmed at 37° C. for 15 min before starting reactions with 20 μl 10 mM NADPH solution in PBS and incubated for 20 min at 37° C. The assay is performed in duplicate. Reactions were quenched with 200 μl cold acetonitrile containing internal standards (200 nM labetalol, 200 nM alprazolam and 100 nM tolbutamide). The plate was centrifuged at 4000 rpm for 30 minutes, placed on ice for 20 minutes and then centrifuged at 4000 rpm for 30 minutes again to precipitate protein. 100 μL of the supernatant was transferred to a new plate and diluted with 100 μL pure water before being analysed using UPLC/MS/MS. The products of the transformation for dextromethorphan to dextrorphan was monitored by UPLC-MS/MS. The inhibition of CYP2D6 in human liver microsomes was measured as the percentage decrease in the activity of dextrorphan formation compared to non-inhibited controls (=100% activity). The IC50 value was calculated (test compound concentration which produces 50% inhibition) by using Excel Xlfit.

[1] = PBS and FaSSIF solubility; type: physicochemical; conditions: kinetic from dmso stock
Method: Test compounds were prepared as 10 mM stocks in DMSO and 15 μl samples transferred in duplicate into 1.5 mL glass flat bottom vials (BioTech Solutions). Fasted state simulated intestinal fluid (FaSSIF) or PBS (pH 7.4) was added to each vial to final volume of 500 μl. One PTFE encapsulated stir stick (V&P Scientific) was placed in each vial before sealing with PTFE/SIL plugs (BioTech Solutions). Vials were shaken at 1100 rpm for 2 hr at 25° C. Samples were then filtered through MultiScreen Solvinert filter plates (Millipore) via vacuum filtration. Aliquots of filtrate (5 μl) plus 5 μl DMSO were diluted in 490 μl 50% acetonitrile in water containing internal standard. The filtrate was analysed and quantified against a standard of known concentration using LC-MS/MS. Solubility values of the test compound and control compound were calculated as follows: […]

[2] = Hepatocyte clearance assay, human; type: in vitro ADME; conditions: average value from two experiments, read-out: Human heps Clint
Method: (§1) In vitro clearance studies were performed in primary rat and human hepatocytes (BiolVT). Vials of cryopreserved rat or human hepatocytes were thawed in a 37° C. water bath for 2 min. Cells were transferred into thawing medium (Williams' Medium E containing 30% Percoll, 1×GlutaMAX-1, 15 mM HEPES, 5% fetal bovine serum (FBS), 4 μg/ml insulin, 1 μM dexamethasone), centrifuged at 100 g for 10 min then resuspended in culture medium (Leibovitz's L-15 Medium) at a concentration of 0.5×10^6 viable cells/mL (number of viable cells assessed using AO/PI staining). Hepatocytes (198 μL) were transferred into wells of a 96-well non-coated plate and placed in a 37° C. incubator for 10 min. Test compound solutions were prepared from 10 mM stocks in DMSO, diluted to 100 μM in 50% (v/v in water) acetonitrile. Test compound samples (2 μl) were added to each well of hepatocytes and incubated at 37° C. Samples (25 μl) were collected at t=0, 15, 30, […] and 120 min, mixed with 6 volumes (150 μl) of acetonitrile containing internal standard (100 nM alprazolam, 200 nM caffeine and 100 nM tolbutamide), vortexed for 5 min and centrifuged for 45 min at 3220 g. An aliquot of supernatant (100 μL) was diluted with 100 μL ultra-pure water, and the mixture was used for LC/MS/MS analysis. All incubations were performed in duplicate. Peak areas were determined from extracted ion chromatograms. The slope value, k, was determined by linear regression of the natural logarithm of the remaining percentage of the parent drug vs. incubation time curve. The in vitro half-life (in vitro t½) was determined from the slope value: in vitro t½=0.693/k. Conversion of the in vitro t½ (in min) into the in vitro intrinsic clearance (in vitro CLint, in μL/min/1×10^6 cells) was done using the following equation (mean of duplicate determinations):
(§2) [formula] • V=incubation volume (0.2 mL) • N=number of hepatocytes per well (0.1×10^6 cells).

[3] = Hepatocyte clearance assay, rat; type: in vitro ADME; conditions: average value from two experiments, read-out: Rat heps Clint
Method: as §1, §2

[4] = aqueous buffer, PBS pH 7.4, 2 hr at 25° C., read-out: Solubility PBS (pH 7.4)
[5] = cryopreserved primary human hepatocytes
[6] = cryopreserved primary rat hepatocytes
[7] = fasted state simulated intestinal fluid (FaSSIF), fassif, Fasted state simulated intestinal fluid, 2 hr at 25° C., read-out: Solubility FaSSIF
[8] = cryopreserved primary hepatocytes

Sequence of CYP2D6 (P10635 whole entry, canonical isoform): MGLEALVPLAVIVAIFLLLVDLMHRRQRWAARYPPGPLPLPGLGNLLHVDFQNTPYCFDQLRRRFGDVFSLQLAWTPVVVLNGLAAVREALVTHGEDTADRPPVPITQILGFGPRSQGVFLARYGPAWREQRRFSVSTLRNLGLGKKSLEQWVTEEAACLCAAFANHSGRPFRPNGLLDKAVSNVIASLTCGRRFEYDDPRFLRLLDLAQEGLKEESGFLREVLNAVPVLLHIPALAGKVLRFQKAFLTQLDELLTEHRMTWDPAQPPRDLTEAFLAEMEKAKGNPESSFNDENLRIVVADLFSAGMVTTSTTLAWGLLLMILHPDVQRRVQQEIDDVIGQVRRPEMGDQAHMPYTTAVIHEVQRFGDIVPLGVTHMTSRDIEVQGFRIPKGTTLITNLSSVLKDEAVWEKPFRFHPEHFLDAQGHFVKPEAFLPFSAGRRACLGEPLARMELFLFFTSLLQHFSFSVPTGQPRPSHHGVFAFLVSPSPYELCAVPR

Row | Compound | mPTP Rat liver pIC50 (mPTP) | inhibition at 20 min, 1 µM (CYP2D6) [%] | solubility at 2 h [1, 4] [µM] | hepatocyte CLint at 1 µM [2, 5] [µL/min/1e6 cells] | hepatocyte CLint at 1 µM [3, 6] [µL/min/1e6 cells] | solubility at 2 h [1, 7] [µM] | pIC50 (CYP2D6) | hepatocyte CLint at 1 µM [2, 8] [µL/min/1e6 cells] | hepatocyte CLint at 1 µM [3, 8] [µL/min/1e6 cells]
1 | Cc1cccc(C(C)C)c1NC(=O)/C=C/c1ccc2oc(=O)[nH]c2c1 [Example 14, (E)-N-(2-isopropyl-6-methylphenyl)-3-(2-oxo-2,3-dihydrobenzo[d]oxazol-5-yl)acrylamide] | 6.5 | -0.52 | 16 (≈ 5.38 µg/mL) |  |  |  |  |  | 
2 | CC(C)c1ccc(Cl)cc1NC(=O)/C=C/c1ccc2oc(=O)[nH]c2c1 [Example 15, (E)-N-(5-chloro-2-isopropylphenyl)-3-(2-oxo-2,3-dihydrobenzo[d]oxazol-5-yl)acrylamide] | 6.9 | -0.28 | 0.03 (≈ 0.0107 µg/mL) |  |  |  |  |  | 
3 | Cc1ccc(F)c(C)c1NC(=O)/C=C/c1ccc2c(c1)NC(=O)C2 [Example 20, (E)-N-(3-fluoro-2,6-dimethylphenyl)-3-(2-oxoindolin-6-yl)acrylamide] | 6.8 | -1.76 |  | 6.08 | 11.9 | 210 (≈ 68.3 µg/mL) |  |  | 
4 | N#Cc1n[nH]c2cc(/C=C/C(=O)NC3CCc4ccccc43)ccc12 (stereo not drawn) [Example 26, (E)-3-(3-cyano-1H-indazol-6-yl)-N-(2,3-dihydro-1H-inden-1-yl)acrylamide] | 7.2 | 3.49 |  |  | 87.5 |  | 5.06 |  | 
5 | O=C(/C=C/c1cc2[nH]nnc2cc1F)NC1CCc2ccccc21 (stereo not drawn) [Example 27, (E)-N-(2,3-dihydro-1H-inden-1-yl)-3-(5-fluoro-1H-benzo[d][1,2,3]triazol-6-yl) acrylamide] |  | 14.3 |  |  |  | 43.1 (≈ 13.9 µg/mL) |  | 9.6 | 
6 | O=C(/C=C/c1ccc2c(C(F)(F)F)n[nH]c2c1)NC1CCc2ccccc21 (stereo not drawn) [Example 28, (E)-N-(2,3-dihydro-1H-inden-1-yl)-3-(3-(trifluoromethyl)-1H-indazol-6-yl) acrylamide] |  | 8.27 |  |  |  |  |  |  | 73.6
7 | Cc1cccc(C)c1NC(=O)/C=C/c1ccc2c(c1)[nH]c(=O)n2C [Example 29, (E)-N-(2,6-dimethylphenyl)-3-(1-methyl-2-oxo-2,3-dihydro-1H-benzo[d]imidazol-5-yl)acrylamide] | 6.9 | -3.03 | 33.5 (≈ 10.8 µg/mL) |  | 16.1 | 69.8 (≈ 22.4 µg/mL) |  |  | 
8 | Cc1c(F)cc(F)c(C)c1NC(=O)/C=C/c1ccc2c(c1)NC(=O)C2 [Example 35, (E)-N-(3,5-difluoro-2,6-dimethylphenyl)-3-(2-oxoindolin-6-yl)acrylamide] | 7.2 | 2.83 |  | 8.33 |  | 258 (≈ 88.4 µg/mL) |  |  | 
9 | CO[C@H]1Cc2ccccc2[C@@H]1NC(=O)/C=C/c1ccc2c(Cl)n[nH]c2c1 [Example 72, (E)-3-(3-chloro-1H-indazol-6-yl)-N-((1S,2S)-2-methoxy-2,3-dihydro-1H-inden-1-yl)acrylamide] |  | 9.98 |  |  |  | 24.4 (≈ 8.98 µg/mL) |  | 11.3 | 77
10 | COCc1c(F)cncc1NC(=O)/C=C/c1ccc2c(C)n[nH]c2c1 [Example 114, (2E)-N-[5-fluoro-4-(methoxymethyl)pyridin-3-yl]-3-(3-methyl-1H-indazol-6-yl)prop-2-enamide] |  |  |  |  |  | 19 (≈ 6.47 µg/mL) |  | 3 | 76
